Biological target: T1, F508delCFTR cell surface expression in CFBE41o-F508delCFTR-HRP cells (Homo sapiens, UniProt P13569, DEL508-508)
T1 construct: fused on or other part: Horseradish peroxidase (HRP) reporter inserted in the fourth exofacial (extracellular) loop of CFTR; expression is doxycycline-inducible
Assay: Cell Surface Expression-Horse Radish Peroxidase (CSE-HRP) Assay
Assay type: cell-based
Conditions: for EC50: CFBE41o-F508delCFTR-HRP cells, 18-24 hours at 33° C., 8-point curve, highest concentration 20 μM; for Maximum % activity (%): maximum at any tested concentration, normalized to on-plate positive control (3 μM)
Excerpt: Cell Surface Expression-Horse Radish Peroxidase (CSE-HRP) Assay:
A cellular assay for measuring the F508delCFTR cell surface expression after correction with test compounds was developed in human lung derived epithelial cell line (CFBE41o-) (Veit G et al, (2012) Mol Biol Cell. 23(21): 4188-4202). This was achieved by expressing the F508delCFTR mutation along with a horseradish peroxidase (HRP) in the fourth exofacial loop and then measuring the HRP activity using luminescence readout from these cells, CFBE41o-F508delCFTR-HRP, that were incubated overnight with the test corrector compounds. Briefly, for this primary assay, the CFBE41o-F508delCFTR-HRP cells were plated in 384-well plates (Greiner Bio-one; Cat 781080) at 4,000 cells/well along with 0.5 μg/mL doxycycline to induce the F508delCFTR-HRP expression and further incubated at 37° C., 5% CO2 for 72 hours. The test compounds were then added at the required concentrations and further incubated for 18-24 hours at 33° C. The highest concentration tested was 20 μM with an 8-point concentration response curve using a 3-fold dilution. Three replicate plates were run to determine one EC50. All plates contained negative controls (dimethyl sulfoxide, DMSO) and positive controls (3 μM of 3-[(2R,4R)-4-({[1-(2,2-difluoro-1,3-benzodioxol-5-yl)cyclopropyl]carbonyl}amino)-7-methoxy-3,4-dihydro-2H-chromen-2-yl]benzoic acid) as well as on-plate concentration response of the positive control. Post incubation, the plates were washed 5× times with Dulbecco's phosphate buffered saline (DPBS), followed by the addition of the HRP substrate, luminol (50 μL), and measuring the HRP activity using luminescence readout on EnVision® Multilabel Plate Reader (Perkin Elmer; product number 2104-0010). The raw counts from the experiment are analyzed using Accelrys® Assay Explorer v3.3.
Z′ greater than 0.5 was used as passing quality control criteria for the plates.
The Z′ is defined as: 1−[3*SDPositive Control+3*SDNegative Control/Absolute(MeanPositive Control−MeanNegative Control)] wherein “SD” is standard deviation.
The % activity measured at each of the 8 test concentrations of the test compound was normalized to the on-plate positive control using the following formula: % activity=[(test compound response DMSO response)/(positive control response DMSO response)]*100
The maximum % activity achieved for the test compound at any tested concentration is presented in Table 1 along with the EC50 calculated using the following general sigmoidal curve with variable Hill slope equation (described as Model 42 in the Accelrys® Assay Explorer v3.3 software): y=(a−d)/(1+(x/c)^b)+d
General sigmoidal curve with concentration, response, top, bottom, EC50 and Hill slope.
This model describes a sigmoidal curve with an adjustable baseline, a. The equation can be used to fit curves where response is either increasing or decreasing with respect to the independent variable, “x”.
“x” is a concentration of drug under test.
“a” is the maximum response, and “d” is the minimum response
“c” is the inflection point (EC50) for the curve. That is, “y” is halfway between the lower and upper asymptotes when x=c.
“b” is the slope-factor or Hill coefficient. The sign of b is positive when the response increases with increasing dose and is negative when the response decreases with increasing dose (inhibition).

T1 sequence (P13569 with tags, fused parts or gaps DEL508-508 limits assumed): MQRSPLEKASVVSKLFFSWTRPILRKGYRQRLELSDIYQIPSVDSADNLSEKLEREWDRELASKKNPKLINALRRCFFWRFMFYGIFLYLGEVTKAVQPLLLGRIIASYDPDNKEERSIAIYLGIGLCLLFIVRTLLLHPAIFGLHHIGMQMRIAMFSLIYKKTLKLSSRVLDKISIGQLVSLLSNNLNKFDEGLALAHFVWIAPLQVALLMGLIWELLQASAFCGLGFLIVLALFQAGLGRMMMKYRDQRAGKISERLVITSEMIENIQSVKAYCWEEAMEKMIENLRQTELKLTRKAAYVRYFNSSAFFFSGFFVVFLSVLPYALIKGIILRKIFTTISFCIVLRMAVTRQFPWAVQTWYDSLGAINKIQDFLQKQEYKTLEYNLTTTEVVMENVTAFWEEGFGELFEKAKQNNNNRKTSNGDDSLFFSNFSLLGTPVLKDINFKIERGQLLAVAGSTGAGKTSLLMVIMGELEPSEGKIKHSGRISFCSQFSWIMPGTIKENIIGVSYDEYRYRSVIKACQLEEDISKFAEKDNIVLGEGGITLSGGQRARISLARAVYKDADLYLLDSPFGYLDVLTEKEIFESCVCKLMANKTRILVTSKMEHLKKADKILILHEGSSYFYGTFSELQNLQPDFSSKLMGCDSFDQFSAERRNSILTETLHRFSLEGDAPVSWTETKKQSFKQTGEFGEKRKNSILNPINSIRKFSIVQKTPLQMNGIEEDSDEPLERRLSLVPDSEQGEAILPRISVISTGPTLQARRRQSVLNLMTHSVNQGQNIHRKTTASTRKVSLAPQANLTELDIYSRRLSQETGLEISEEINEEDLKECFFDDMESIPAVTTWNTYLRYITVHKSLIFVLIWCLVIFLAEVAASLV
T1 sequence (P13569 919-1480 limits assumed, stated change not applied): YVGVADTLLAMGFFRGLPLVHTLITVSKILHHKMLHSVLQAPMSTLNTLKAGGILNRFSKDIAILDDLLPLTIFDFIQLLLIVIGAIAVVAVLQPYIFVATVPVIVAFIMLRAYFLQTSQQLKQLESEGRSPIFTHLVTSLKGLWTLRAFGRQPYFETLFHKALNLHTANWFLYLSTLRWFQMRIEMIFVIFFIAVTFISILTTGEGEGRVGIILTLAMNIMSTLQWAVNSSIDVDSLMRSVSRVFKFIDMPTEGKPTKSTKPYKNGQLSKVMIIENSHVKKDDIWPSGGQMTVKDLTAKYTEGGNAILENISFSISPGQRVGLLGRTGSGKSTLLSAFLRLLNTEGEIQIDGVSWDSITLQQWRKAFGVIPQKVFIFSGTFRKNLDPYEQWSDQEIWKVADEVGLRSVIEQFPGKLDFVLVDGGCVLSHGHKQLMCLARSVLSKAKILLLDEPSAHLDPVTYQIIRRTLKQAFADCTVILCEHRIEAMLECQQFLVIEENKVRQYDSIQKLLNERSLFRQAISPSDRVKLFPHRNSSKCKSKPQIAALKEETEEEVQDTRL

Row | SMILES | EC50 | Maximum % activity (%)
1 | COC(=O)c1cccc([C@H]2C[C@@H](NC(=O)C3(C)CCc4cc5c(cc43)OC(F)(F)O5)c3ccc(OC)cc3O2)c1 (stereo partly drawn) [Example 52, methyl 3-{(2R,4R)-4-[(2,2-difluoro-5-methyl-6,7-dihydro-2H,5H-indeno[5,6-d][1,3]dioxole-5-carbonyl)amino]-7-methoxy-3,4-dihydro-2H-1-benzopyran-2-yl}benzoate] | 0.96 µM | 77%
2 | CC1(C(=O)Nc2nnc(-c3ccc(C(=O)O)cc3)s2)COc2cc3c(cc21)OC(F)(F)O3 (stereo not drawn) [Example 53, 4-{5-[(2,2-difluoro-7-methyl-6,7-dihydro-2H-furo[2,3-f][1,3]benzodioxole-7-carbonyl)amino]-1,3,4-thiadiazol-2-yl}benzoic acid] | > 20 µM | 1%
3 | CC1(C(=O)Nc2cccc(-c3ccccc3)c2)COc2cc3c(cc21)OC(F)(F)O3 (stereo not drawn) [Example 54, N-([1,1′-biphenyl]-3-yl)-2,2-difluoro-7-methyl-6,7-dihydro-2H-furo[2,3-f][1,3]benzodioxole-7-carboxamide] | 6.45 µM | 151%
4 | CC1(C(=O)Nc2cccc(-c3ccccc3)n2)COc2cc3c(cc21)OC(F)(F)O3 (stereo not drawn) [Example 55, 2,2-difluoro-7-methyl-N-(6-phenylpyridin-2-yl)-6,7-dihydro-2H-furo[2,3-f][1,3]benzodioxole-7-carboxamide] | 6.62 µM | 159%
5 | C[C@]1(C(=O)N[C@@H]2C[C@H](c3ccc(C(=O)O)cc3)Oc3ccccc32)CCc2cc3c(cc21)OC(F)(F)O3 [Example 59, 4-[(2R,4R)-4-{[(5S)-2,2-difluoro-5-methyl-6,7-dihydro-211,51-indeno[5,6-d][1,3]dioxole-5-carbonyl]amino}-3,4-dihydro-2H-1-benzopyran-2-yl]benzoic acid] | 2.75 µM | 50%
6 | Cc1ccc(NC(=O)C2(C)COc3cc4c(cc32)OC(F)(F)O4)cc1-c1cccc(C(=O)O)c1 (stereo not drawn) [Example 60, 5′-[(2,2-difluoro-7-methyl-6,7-dihydro-2H-furo[2,3-f][1,3]benzodioxole-7-carbonyl)amino]-2′-methyl[1,1′-biphenyl]-3-carboxylic acid] | 0.63 µM | 152%
7 | CC1(C(=O)Nc2ccc(N3CC(C(=O)O)C3)cc2)COc2cc3c(cc21)OC(F)(F)O3 (stereo not drawn) [Example 61, 1-{4-[(2,2-difluoro-7-methyl-6,7-dihydro-2H-furo[2,3-f][1,3]benzodioxole-7-carbonyl)amino]phenyl}azetidine-3-carboxylic acid] | > 20 µM | 8%
8 | Cc1c(C(=O)O)ncn1-c1ccc(C(F)(F)F)cc1NC(=O)C1(C)COc2cc3c(cc21)OC(F)(F)O3 (stereo not drawn) [Example 62, 1-{2-[(2,2-difluoro-7-methyl-6,7-dihydro-2H-furo[2,3-f][1,3]benzodioxole-7-carbonyl)amino]-4-(trifluoromethyl)phenyl}-5-methyl-1H-imidazole-4-carboxylic acid] | > 20 µM | 12%
9 | CC1(C(=O)Nc2nc(-c3ccc(C#N)cc3)cs2)COc2cc3c(cc21)OC(F)(F)O3 (stereo not drawn) [Example 63, N-[4-(4-cyanophenyl)-1,3-thiazol-2-yl]-2,2-difluoro-7-methyl-6,7-dihydro-2H-furo[2,3-f][1,3]benzodioxole-7-carboxamide] | 8.64 µM | 41%

The remaining lines, values ahead:

Row | EC50 | Maximum % activity (%) | SMILES
10 | 7.29 µM | 46% | COC(=O)c1ccc(-c2csc(NC(=O)C3(C)COc4cc5c(cc43)OC(F)(F)O5)n2)cc1 (stereo not drawn) [Example 64, methyl 4-{2-[(2,2-difluoro-7-methyl-6,7-dihydro-2H-furo[2,3-f][1,3]benzodioxole-7-carbonyl)amino]-1,3-thiazol-4-yl}benzoate]
11 | > 20 µM | 1% | CC1(C(=O)Nc2cccc(C(=O)NC[C@@H](O)CO)n2)COc2cc3c(cc21)OC(F)(F)O3 (stereo partly drawn) [Example 65, 6-[(2,2-difluoro-7-methyl-6,7-dihydro-2H-furo[2,3-f][1,3]benzodioxole-7-carbonyl)amino]-N-[(2R)-2,3-dihydroxypropyl]pyridine-2-carboxamide]
12 | 4.11 µM | 160% | COC(=O)c1ccc(-c2cccc(NC(=O)C3(C)COc4cc5c(cc43)OC(F)(F)O5)c2)cc1 (stereo not drawn) [Example 66, methyl 3′-[(2,2-difluoro-7-methyl-6,7-dihydro-2H-furo[2,3-f][1,3]benzodioxole-7-carbonyl)amino][1,1′-biphenyl]-4-carboxylate]
13 | 8.39 µM | 70% | CC1(C(=O)Nc2cccc(F)n2)COc2cc3c(cc21)OC(F)(F)O3 (stereo not drawn) [Example 67, 2,2-difluoro-N-(6-fluoropyridin-2-yl)-7-methyl-6,7-dihydro-2H-furo[2,3-f][1,3]benzodioxole-7-carboxamide]
14 | 4.47 µM | 44% | CC1(C(=O)Nc2nc(-c3ccc(C(=O)O)cc3)cs2)COc2cc3c(cc21)OC(F)(F)O3 (stereo not drawn) [Example 68, 4-{2-[(2,2-difluoro-7-methyl-6,7-dihydro-2H-furo[2,3-f][1,3]benzodioxole-7-carbonyl)amino]-1,3-thiazol-4-yl}benzoic acid]
15 | 1.39 µM | 183% | CC1(C(=O)Nc2cccc(-c3ccc(C(=O)O)cc3)c2)COc2cc3c(cc21)OC(F)(F)O3 (stereo not drawn) [Example 69, 3′-[(2,2-difluoro-7-methyl-6,7-dihydro-2H-furo[2,3-f][1,3]benzodioxole-7-carbonyl)amino][1,1′-biphenyl]-4-carboxylic acid]
16 | 1.3 µM | 116% | COC(=O)C1CCN(c2cccc(NC(=O)C3(C)COc4cc5c(cc43)OC(F)(F)O5)n2)CC1 (stereo not drawn) [Example 70, methyl 1-{6-[(2,2-difluoro-7-methyl-6,7-dihydro-2H-furo[2,3-f][1,3]benzodioxole-7-carbonyl)amino]pyridin-2-yl}piperidine-4-carboxylate]
17 | 1.23 µM | 128% | CC1(C(=O)Nc2cccc(N3CCC(C(=O)O)CC3)n2)COc2cc3c(cc21)OC(F)(F)O3 (stereo not drawn) [Example 71, 1-{6-[(2,2-difluoro-7-methyl-6,7-dihydro-2H-furo[2,3-f][1,3]benzodioxole-7-carbonyl)amino]pyridin-2-yl}piperidine-4-carboxylic acid]
18 | 9.2 µM | 28% | C[C@]1(C(=O)Nc2ccc(N3CCC(O)C3)nc2)COc2cc3c(cc21)OC(F)(F)O3 (stereo partly drawn) [Example 72, (7R)-2,2-difluoro-N-[6-(3-hydroxypyrrolidin-1-yl)pyridin-3-yl]-7-methyl-6,7-dihydro-2H-furo[2,3-f][1,3]benzodioxole-7-carboxamide]
19 | 2.65 µM | 117% | C[C@]1(C(=O)Nc2cccc(-c3cccc(C(=O)O)c3)n2)COc2cc3c(cc21)OC(F)(F)O3 [Example 73, 3-(6-{[(7R)-2,2-difluoro-7-methyl-6,7-dihydro-2H-furo[2,3-f][1,3]benzodioxole-7-carbonyl]amino}pyridin-2-yl)benzoic acid]
20 | 0.7 µM | 105% | Cc1ccc(NC(=O)C2(C)COc3cc4c(cc32)OC(F)(F)O4)nc1-c1cccc(C(N)=O)c1 (stereo not drawn) [Example 74, N-[6-(3-carbamoylphenyl)-5-methylpyridin-2-yl]-2,2-difluoro-7-methyl-6,7-dihydro-2H-furo[2,3-f][1,3]benzodioxole-7-carboxamide]
21 | 1.73 µM | 94% | Cc1ccc(NC(=O)C2(C)COc3cc4c(cc32)OC(F)(F)O4)nc1-c1cccc(C(=O)N(C)C)c1 (stereo not drawn) [Example 75, N-{6-[3-(dimethylcarbamoyl)phenyl]-5-methylpyridin-2-yl}-2,2-difluoro-7-methyl-6,7-dihydro-2H-furo[2,3-f][1,3]benzodioxole-7-carboxamide]

Source: US9840513B2 (AbbVie S.à.r.l., priority 2015, dated 2017)
